Bounds are passed on as bounds.

One experiment concerns MKP3. The following applies: basal, without ERK2; cited from earlier work.
In experiment [1] the target is T1, Full-length human MKP3, MKP3(1-381) (human) (UniProt Q16828).
T1 sequence: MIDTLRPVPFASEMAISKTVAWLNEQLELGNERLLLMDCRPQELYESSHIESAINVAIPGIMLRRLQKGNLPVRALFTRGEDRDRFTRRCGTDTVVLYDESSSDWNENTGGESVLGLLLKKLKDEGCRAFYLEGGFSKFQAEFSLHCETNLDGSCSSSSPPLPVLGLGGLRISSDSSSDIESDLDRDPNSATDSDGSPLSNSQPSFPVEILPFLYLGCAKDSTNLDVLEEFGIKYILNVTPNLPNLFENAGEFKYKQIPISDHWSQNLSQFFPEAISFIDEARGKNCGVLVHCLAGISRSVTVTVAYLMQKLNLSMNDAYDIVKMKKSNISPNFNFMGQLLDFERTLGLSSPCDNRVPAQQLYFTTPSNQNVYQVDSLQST

For `O=C1C(SCCO)=C(SCCO)C(=O)c2ccccc21` [NSC95397], the “effect on MKP3's basal activity toward OMFP” value in the experiment on MKP3 is recorded as “inhibited”.

For the compound “Phosphorylated ERK2 (bis-pERK2, phosphorylated at T183 and Y185) (from UniProt P63085 1-358) (enzyme)”, the time of pERK2 dephosphorylation by MKP3^FL with BCI at a concentration 50 times that of pERK2 in experiment [1] is more than 20 fold.

Values taken from article PMC12444472, “BCI inhibits MKP3 by targeting the kinase-binding domain and disrupting ERK2 interaction” (The Journal of Biological Chemistry, 2025).
